One assay concerns the target T1, PqsE–RhlR interaction (Pseudomonas aeruginosa, UniProt P20581).
T1 construct: made in house
The assay is described as follows: PqsE–RhlR interaction (in vitro pull-down). To be noted: in words. It is filed as binding. On the procedure: (§1) 6xHis-PqsE proteins were purified for biochemical assays (tagged) and crystallography (tag removed), as described previously.[24] Enzyme activities of purified 6xHis-PqsE variants were measured as previously reported with MU-butyrate as the substrate.[25] Fluorescence polarization assays with the BB562 active site probe were performed as described.[24] The melting temperature (Tm) of each purified 6xHis-PqsE variant was measured using DSF as described previously.[24] Interaction between PqsE and RhlR proteins in vitro was measured as described previously using pull-down assays.[24] Pyocyanin production by P. aeruginosa PA14 strains carrying pqsE variants on the pUCP18 plasmid was measured as described.[24] The ability of PqsE variants to increase RhlR transcription factor activity in an E. coli reporter assay was assessed as previously described.[24] All small molecule syntheses and characterization are described in the Supporting Information.

Assay [1] has as its target T2, PqsE (Pseudomonas aeruginosa, UniProt P20581).
T2 construct: made in house
The assay is described as follows: Competitive fluorescence polarization with the BB562 active site probe. To be noted: competition with BB562 active site probe for binding to PqsE; one experiment performed in triplicate.
Text: (a) Structures of the precursor molecules BB391 and BB393 and the hybrid derivative BB580. Positions denoted 1, 2, and 3 were derivatized to explore the binding affinity for the PqsE active site. […] Polarization value for PqsE-BB562 in the absence of a competitor is defined as 100% probe bound. All polarization values were background-subtracted by the reading for the probe in the absence of PqsE (background fluorescence). […] Both the BB584 molecule and key PqsE amino acid sidechains are shown as sticks. Amino acid sidechain carbons are depicted in gray and BB584 carbons are shown in tan. Iron atoms and water molecules are shown as orange and green spheres, respectively. Oxygen and nitrogen atoms are in red and blue, respectively. Hydrogen bonds are shown as dotted yellow lines.
as §1, with “Information. […]” for “Information.”
a Design of Hybrid Scaffold b Core Aromatic Group […]
Engaging Hydrophobic Groove […]
the amide bond orientation. b) Optimization of “position 2”, the core aromatic group. c) Optimization of “position 3”, the hydrophobic tail. Competition curves with the BB562 active site fluorescent probe were f it from the average of triplicates and erro r bars represent standard deviation s. Polarization value for PqsE-BB562 in the absence of competitor is defined as 100% Probe Bound. All polarization values were background-subtracted by the reading for the probe in the absence of PqsE (background fluorescence).

Assay [2] has as its target T2, PqsE. Particulars: in words; cited from earlier work.
The target of the next assay is WT PqsE (Pseudomonas aeruginosa, UniProt P20581). To be noted: read-out: BB562 Binding Kapp, 2 µM MnCl2, two independent experiments in triplicate. On the procedure: (§2) (a) Structure of PqsE(E182W) (blue) overlaid with that of WT PqsE (PDB: 2Q0I, gray). The active site iron atoms are shown in orange. […] (b) Structure of PqsE(E182W/E280A) (maroon) overlaid with that of WT PqsE (as in a). In panels a and b, residue E280 is shown in stick representation. […] Kapp was determined in two independent experiments performed in triplicate. (d) Hydrolysis of 4-methylumbelliferyl butyrate (MU-butyrate) by the designated purified PqsE proteins. Values are represented as % activity of WT PqsE protein. Results are the average of two independent experiments performed in triplicate. Error bars represent standard deviations. (e) First derivative plots (dF/dT is defined as the change in SYPRO Orange fluorescence divided by change in temperature) of melting curves for the designated PqsE proteins. The peak of each curve is defined as the Tm of that protein.
as §1
(§3) a Stability of PqsE Proteins WT
(§4) Hydrolysis of MU-butyrate
(§5) Fig. S3. Biochemical characterization of purified PqsE variants. a) First derivative plots of melt curves for
(§6) PqsE prot eins. All proteins were tested at 5 µM with 200 µM MnCl 2. dF/dT indicates the change in SYPRO
(§7) Orange fluorescence divided by the change in tempera ture.
(§8) Results are the average of two independent experiments performed in triplicate.
(§9) Error bars represent standard deviations.

For the next assay, the target named is PqsE(E182W/E280A) (Pseudomonas aeruginosa, UniProt P20581, E182W/E280A). The procedure: as §2, §1, §3, §4, §5, §6, §7, §8, §9
The target of a further assay is PqsE(NI/E280A) (Pseudomonas aeruginosa, UniProt P20581, E280A/R243A/R246A/R247A). Particulars: read-out: BB562 Binding Kapp; PqsE variant NI/E280A; 2 µM MnCl2. The procedure:
as §2, §1, §3, §4, §5, §6, §7, §8, §9

Another assay deals with PqsE(E182W) (Pseudomonas aeruginosa, UniProt P20581, E182W). On the procedure:
as §2, §1, §3, §4, §5, §6, §7, §8, §9

Another assay deals with PqsE(NI) (Pseudomonas aeruginosa, UniProt P20581, R243A/R246A/R247A). Particulars: read-out: BB562 Binding Kapp; PqsE variant NI (R243A/R246A/R247A); 2 µM MnCl2. The procedure:
as §2, §1, §3, §4, §5, §6, §7, §8, §9

Another assay deals with PqsE(E182W/NI) (Pseudomonas aeruginosa, UniProt P20581, E182W/R243A/R246A/R247A). To be noted: read-out: BB562 Binding Kapp; PqsE variant E182W/NI; 2 µM MnCl2; error ND (could not be calculated). The procedure: as §2, §1, §3, §4, §5, §6, §7, §8, §9
Another assay concerns the target PqsE(D73A/E280A) (Pseudomonas aeruginosa, UniProt P20581, D73A/E280A). Particulars: read-out: BB562 Binding Kapp; PqsE variant D73A/E280A; 2 µM MnCl2. The procedure:
as §2, §1, §3, §4, §5, §6, §7, §8, §9

The next assay concerns the target PqsE(E280A) (Pseudomonas aeruginosa, UniProt P20581, E280A). Particulars: read-out: BB562 Binding Kapp; PqsE variant E280A; 2 µM MnCl2. On the procedure:
as §2, §1, §3, §4, §5, §6, §7, §8, §9

For a further assay, the target named is PqsE(D73A/E182W) (Pseudomonas aeruginosa, UniProt P20581, D73A/E182W). To be noted: read-out: BB562 Binding Kapp; PqsE variant D73A/E182W; 2 µM MnCl2; error ND (could not be calculated). On the procedure:
as §2, §1, §3, §4, §5, §6, §7, §8, §9

The target of the next assay is PqsE(D73A/NI) (Pseudomonas aeruginosa, UniProt P20581, D73A/R243A/R246A/R247A). To be noted: read-out: BB562 Binding Kapp; PqsE variant D73A/NI; 2 µM MnCl2; error ND (could not be calculated). On the procedure: as §2, §1, §3, §4, §5, §6, §7, §8, §9
For the next assay, the target named is PqsE(D73A) (Pseudomonas aeruginosa, UniProt P20581, D73A). Particulars: read-out: BB562 Binding Kapp; PqsE variant D73A; 2 µM MnCl2. The procedure:
as §2, §1, §3, §4, §5, §6, §7, §8, §9

Turning to `O=C(Nc1cccc(-c2ccn[nH]2)c1)c1cccc2cn[nH]c12` [BB391], the “inhibition/disruption of the PqsE–RhlR interaction” value (“inhibition/disruption” for short) against PqsE–RhlR interaction is listed as “none of the three compounds disrupt the PqsE–RhlR interaction”. Besides, the EC50 at PqsE [1] was 160 ± 54 nM. The “competition with the BB562 active site probe for binding to PqsE” value at PqsE [2] is given as “mid-nanomolar”.
For the compound `CCC(C)(CNC(=O)Nc1ccc(C(=O)Nc2nccs2)cc1)N1CCOCC1` (stereo not drawn) [BB393], the “inhibition/disruption” value on PqsE–RhlR interaction is “none of the three compounds disrupt the PqsE–RhlR interaction”. Further, on PqsE [1], a half-maximal effect (EC50) was put at 93 ± 29 nM. Also, the “competition with the BB562 active site probe for binding to PqsE” value at PqsE [2] is given as “mid-nanomolar”.
Regarding `O=C(NCCCn1cc(-c2ccc(NC(=O)c3cccc4cn[nH]c34)cc2)nn1)c1ccc2c(c1)C(=O)OC21c2ccc(O)cc2Oc2cc(O)ccc21` [BB562], the Kd is 416 ± 170 nM on WT PqsE; 418 ± 160 nM at PqsE(E182W/E280A) (read-out: BB562 Binding Kapp, PqsE variant E182W/E280A, 2 µM MnCl2); 669 ± 220 nM on PqsE(NI/E280A); 5.73 ± 4 µM on PqsE(E182W) (read-out: BB562 Binding Kapp, PqsE variant E182W, 2 µM MnCl2); 428 ± 100 nM at PqsE(NI); 4.33 µM at PqsE(E182W/NI). Further, the Kd on PqsE(D73A/E280A) was 468 ± 300 nM; on PqsE(E280A), 210 ± 90 nM; at PqsE(D73A/E182W) it was 8.12 µM; at PqsE(D73A/NI) it was 564 nM; on PqsE(D73A), 507 ± 380 nM. Moreover, the “binding affinity for the active site fluorescent probe” value is “WT binding affinity” on PqsE(E182W/E280A) (PqsE(E182W/E280A), in words, relative to WT PqsE) and “reduced binding affinity” on PqsE(E182W) (PqsE(E182W), in words, relative to WT PqsE).
As for `CCC(C)(CNC(=O)Nc1ccc(NC(=O)c2cccc3cn[nH]c23)cc1)N1CCOCC1` (stereo not drawn) [BB580], the EC50 on PqsE [1] was 99 nM.
The same measure, in the same setting: for `CCC(C)(CNC(=O)Nc1ccc(C(=O)Nc2cccc3cn[nH]c23)cc1)N1CCOCC1` (stereo not drawn) [BB581] the value was 281 nM.
The same measure, in the same setting: in the case of `O=C(NCc1cnccn1)Nc1ccc(NC(=O)c2cccc3cn[nH]c23)cc1` [BB582] it was 302 ± 141 nM; in that of `O=C(NCc1ccccc1)Nc1ccc(NC(=O)c2cccc3cn[nH]c23)cc1` [BB583], 71 nM.
As to `CC(C)(C)CNC(=O)Nc1ccc(NC(=O)c2cccc3cn[nH]c23)cc1` [BB584], at PqsE–RhlR interaction, the “inhibition/disruption” value was “none of the three compounds disrupt the PqsE–RhlR interaction”. On PqsE [1], this compound had an EC50 of 34 nM.
On to `CCC(C)(CNC(=O)Nc1cnc(NC(=O)c2cccc3cn[nH]c23)s1)N1CCOCC1` (stereo not drawn) [BB585], for which the EC50 at PqsE [1] is > 1000 nM.
On the same count and under the same terms, in the case of `CCC(C)(CNC(=O)Nc1cc(NC(=O)c2cccc3cn[nH]c23)[nH]n1)N1CCOCC1` (stereo not drawn) [BB586] it was > 1000 nM.
Still for that read-out and setting: for `CCC(CNC(=O)Nc1ccc(NC(=O)c2cccc3cn[nH]c23)cc1)N1CCOCC1` (stereo not drawn) [BB587] the value was 273 nM.
On to `CC(CNC(=O)Nc1ccc(NC(=O)c2cccc3cn[nH]c23)cc1)N1CCOCC1` (stereo not drawn) [BB588], for which the response at PqsE [1] was half-maximal at 290 nM (EC50).
Same read-out and setting: for `CCC(C)(CNC(=O)Nc1ccc(NC(=O)c2cccc3cn[nH]c23)nc1)N1CCOCC1` (stereo not drawn) [BB589] the value was 608 ± 647 nM.
